Data reported in US20250161212A1, “LIQUID PHARMACEUTICAL FORMULATION OF OMEPRAZOLE OR ESOMEPRAZOLE” (ALKALOID AD SKOPJE, priority 2022, published 2025).

Assay: Stability study of esomeprazole sodium dissolved in DMSO stored at 25° C. (impurities)
Assay type: physicochemical
Method: Example 9—Stability Study Stability results for esomeprazole sodium dissolved in DMSO stored at 25° C.: • Key: • Imp D: omeprazole impurity D: [drawing 3] • RRT: Relative retention time.

[1] = 1.5 months, second table, Imp-s > 0.02%
[2] = 3 months, second table, Imp-s > 0.02%
[3] = 5 months, second table, Imp-s > 0.02%
[4] = 9 months, second table, Imp-s > 0.02%
[5] = 13 months, second table, Imp-s > 0.02%
[6] = Initial, second table, Imp-s > 0.02%
[7] = in DMSO, 25° C., 1.5 months, first table
[8] = in DMSO, 25° C., 5 months, first table
[9] = in DMSO, 25° C., Initial, first table

COc1ccc2nc([S@@+]([O-])Cc3ncc(C)c(OC)c3C)[nH]c2c1 (single isomer, unassigned) [esomeprazole sodium]
Total impurities (1.5 months, second table): 0.14% | Imp D (omeprazole impurity D) [1]: 0.03% | impurity RRT 1.23 [1]: 0.03% | Total impurities (3 months, second table): 0.17% | Imp D (omeprazole impurity D) [2]: 0.03% | impurity RRT 1.23 [2]: 0.03% | Total impurities (5 months, second table): 0.16% | Imp D (omeprazole impurity D) [3]: 0.03% | impurity RRT 1.17 [3]: 0.03% | Total impurities (9 months, second table): 0.25% | Imp D (omeprazole impurity D) [4]: 0.03% | impurity RRT 0.53 [4]: 0.03% | impurity RRT 1.23 [4]: 0.03% | impurity RRT 1.31 [4]: 0.03% | Total impurities (13 months, second table): 0.36% | Imp D (omeprazole impurity D) [5]: 0.03% | impurity RRT 0.54 [5]: 0.04% | impurity RRT 0.90 [5]: 0.04% | impurity RRT 1.23 [5]: 0.03% | impurity RRT 1.31 [5]: 0.04% | impurity RRT 1.32 [5]: 0.03% | Total impurities (Initial, second table): 0.12% | Imp D (omeprazole impurity D) [6]: 0.03% | impurity RRT 1.23 [6]: 0.03% | Imp D (omeprazole impurity D) [7]: Imp D = 0.03% | Total impurities [7]: Total = 0.14% | impurity RRT 1.23 [7]: RRT 1.23 = 0.03% | Imp D (omeprazole impurity D) [8]: Imp D = 0.03% | Total impurities [8]: Total = 0.15% | impurity RRT 0.57 [8]: RRT 0.57 = 0.02% | impurity RRT 1.14 [8]: RRT 1.14 = 0.02% | impurity RRT 1.17 [8]: RRT 1.17 = 0.03% | impurity RRT 1.23 [8]: RRT 1.23 = 0.02% | Imp D (omeprazole impurity D) [9]: Imp D = 0.03% | Total impurities [9]: Total = 0.12% | impurity RRT 1.19 [9]: RRT 1.19 = 0.02% | impurity RRT 1.23 [9]: RRT 1.23 = 0.03%
